A short description of data set [1]: Surface tension of an oscillating bubble in a pulsating bubble surfactometer. The class given is physicochemical. The note with it: after 10 min of pulsing, 37° C. As for the experimental part: Surface Tension Measurements. The minimum and maximum surface tension of an oscillating bubble were measured on samples at 37° C. with a cycle rate of 20 per min in a pulsating bubble surfactometer (PBS, Electronetics Corp.), essentially as described by Enhorning, J. Appl. Physiol 43:198-203 (1977). The plastic cample chamber was rinsed with a dilute solution of dishwashing detergent, thoroughly rinsed with water and dried under a stream of N2 prior to use.

The test system of data set [2] is surfactant-deficient lavaged adult rat lungs. The data set is described as follows: Isolated rat lavaged lung model (pressure-volume deflation curves). It is filed as in vivo. The note with it: for effect on the pressure-volume (P-V) curve of the lavaged lung: statement in words. An excerpt:
Methods of testing the synthetic surfactant preparations for efficacy are well known in the art. For example, the synthetic surfactant preparations of the present invention can be tested in any appropriate manner such as in the adult rat lung model (Ikegami, et al., (1979) Pediatr. Res. 13, 777-780).
Pressure-volume characteristics of surfactant-depleted rat lungs are similar to those of lungs of infants with hyaline membrane disease and restoration of the pressure-volume relationship of the lung to normal is related to the amount of surfactant instilled in a dose dependent manner. (Bermel, M. S., et al., Lavaged excised rat lungs as a model of surfactant deficiency, Lung 162:99-113 (1984)).
Isolated Rat Lavaged Lung Model. The experimental procedures for animal preparation, pressure-volume curve registration and lung lavage were adapted from those described by Ikegami et al., Pediatr. Res. 11:178-182 (1977) and Pediatr. Res. 13:777-780 (1979, and Bermel et al, Lung 162:99-113 (1984). Male Sprague Dawley rats (200-250 g) were anesthetized with sodium pentobarbital and exsanguinated. The trachea was cannulated and the thoracic organs were removed en bloc. After removal of the adventitious tissue, the trachea and lungs (~2 g) were suspended in saline (0.9%), placed in a vacuum chamber, and degassed according to the procedure of Stengel et al. the degassed lungs were suspended in saline in a 37° C., jacketed reservoir and the tracheal cannula was connected both to a water manometer and a glass syringe by a T-tube. The glass syringe was placed in an infusion/withdrawal pump. Lungs were rapidly inflated with air to 30 cm H2 O pressure at the rate of 10 ml/min to minimize air trapping, and were maintained at this pressure for 10 min by intermittently adding air to the lungs. The total volume of air infused was recorded as the total lung capacity (TLC) which was generally 14-15 ml. The lungs were then deflated at a rate of 2.5 ml/min until zero pressure was attained. During deflation, pressure was read from the water manometer at 1 cm intervals and recorded. […] After degassing and equilibration, the lungs were rendered surfactant-deficient by repeated lavage with 5 ml/g lavage buffer (0.9% NaCl, 10 mM HEPES, pH 7.4). The procedures of degassing, equilibrating, and lavaging were repeated (15-20 times) until the pressure-volume curve had become distinctly sigmoidal in shape and the volume of air remaining in the lungs at 5 cm H2 O pressure was less than or equal to 3 ml. At this point, the lungs were considered surfactant-deficient. For testing, 2 ml of 0.9% NaCl, 10 mM HEPES buffer, pH 7.4, were added to the dry lung surfactants (25 mg of phospholipid; 100-125 mg/kg) and the mixture was vortexed, flushed with nitrogen and incubated for 1 h at 45° C. The mixture was then vortexed again, degassed if foamy, and 2 ml of the test mixture were introduced into and withdrawn from the lungs four times by syringe. When the test mixture was reintroduced to the lungs for the fifth time, it was allowed to remain in the lungs. This procedure was adopted to encourage even distribution of the material throughout the lung. The lungs were degassed, allowed to equilibrate at 37° C. for 5 min, and a P-V measurement was performed. […] The deflation limbs of the pressure-volume (P-V) curves in adult rat lungs were analyzed by calculating the total lung capacities (%TLC) at 5 and 10 cm H2 O pressure (PC5 and PC10).

Data set [3] is described as follows: CD spectra: conformation of peptides in water and TFE. It is filed as physicochemical. The note with it: fits ±3% (SEM of fit). As for the experimental part: CD Spectra. Circular dichroic (CD) spectra of samples in 1 mm circular cuvettes were recorded at room temperature on a Jasco J-500A Spectropolarimeter with 2 nm slit width. The CD spectrum of buffer was subtracted from the CD spectrum of the sample after each scan. The scan rate is 2 nm/min and the time constant was 8 sec. Data was collected at 0.04 nm intervals and averaged over a 0.2 nm interval.

For data set [4], the system named is soy phosphatidyl-choline (PC). The data set is described as follows: Antioxidant activity: inhibition of Fe-initiated lipid peroxidation (TBARs). It is filed as biochemical. As for the experimental part:
Antioxidant Activity. Peptides were dissolved in trifluoroethanol (TFE) and mixed with soy phosphatidyl-choline (PC) in chloroform. After drying under a N2 stream, the mixture was resuspended in ethanol and injected into buffer (50 mM NaCl, 50 mM Tris-HCl, pH 7.0) to obtain a final concentration of 0.5 mM phospholipid. Peroxidation was initiated with 50 μM Fe^2+ plus a mixture of 50 μM Fe^3+ and 250 μM histidine. At intervals over a period of 15 min at 37° C., 1 mL samples of the reaction mixture were taken for determination of TBARs (thiobarbituric acid reactive substances). Two mL of a mixture of 2 parts of 0.67% thiobarbituric acid/0.05N NaOH and 1 part of 10% trichloroacetic acid and 0.05 mL of 2% butylated hydroxytoluene were added. Reaction proceeded for 30 min at 100° C. The tubes were then cooled, centrifuged for 15 min at 3000 rpm and transferred to acrylic cuvettes. The differences in absorbance at 532 nm and 700 nm (to correct for light scattering) were measured and the TBARs were calculated in units of malondialdehyde equivalents using a molar extinction coefficient of 1.56×10^5 M^-1 cm^-1.

Setting [5] is: water, fit to standard spectra of Greenfield & Fasman.

Data on three molecules can be found in patent publication US5683982A, “Synthetic lung surfactant having antioxidant properties” (Merrell Pharmaceuticals Inc., priority 1995, dated 1997).

Starred links: 1 amine or outer side, 2 acyl side, 3 side chain; linkers in the order of their positions; H or OH if unused. Residues, ends and D or L forms follow the SMILES beside them. *: point of attachment. X1 = CC(C)(C)c1cc(C(=O)*)cc(C(C)(C)C)c1O; Suc = O=C(CCC(=O)[*:2])[*:1]

As for `CCCCCCCCCCCCCCCC(=O)OC[C@H](COP(=O)([O-])OCC[N+](C)(C)C)OC(=O)CCCCCCCCCCCCCCC` [DPPC, dipalmitoylphosphatidylcholine], the “γmin (minimum surface tension)” value in data set [1] (unsonicated liposomes) was 38 mN/m. Further, in data set [2] (no dose given, mean ± SEM, n=4), the “PC5 (% TLC at 5 cm H2O)” value is 13 ± 1 % TLC and the “PC10 (% TLC at 10 cm H2O)” value is 31 ± 2 % TLC. In data set [2] (no dose given, relative to sufficient and deficient measurements on the same lungs, mean ± SEM), the “restoration (based on PC5)” value is -11 ± 8%. In addition, the “effect on the pressure-volume (P-V) curve of the lavaged lung” value in data set [2] was “no significant effect”.
For `CC(C)C[C@H](NC(=O)CCC(=O)O)C(=O)N[C@@H](CC(C)C)C(=O)N[C@@H](CCC(=O)O)C(=O)N[C@@H](CCCCN)C(=O)N[C@@H](CC(C)C)C(=O)N[C@@H](CC(C)C)C(=O)N[C@@H](CCC(=O)O)C(=O)N[C@@H](CCCCNC(=O)c1cc(C(C)(C)C)c(O)c(C(C)(C)C)c1)C(=O)N[C@@H](CC(C)C)C(=O)N[C@@H](CCCCN)C(N)=O` [HBB-LysMAP10, Suc-Leu-Leu-Glu-Lys-Leu-Leu-Glu-Ne-HBB-Lys-Leu-Lys-NH2] (Suc-LLEKLLEK(X1)LK-NH2), the “Conformation based on CD spectra: α” value in data set [3] (TFE, first TFE column) was determined as 78. Also, in data set [3] (TFE, second TFE column), the “Conformation based on CD spectra: α (second TFE column)” value turned out to be 0. Moreover, in data set [3] (setting [5]), the “Conformation based on CD spectra: α” value is 59 and the “Conformation based on CD spectra: β” value was 4. Moreover, the “antioxidant activity (inhibition of lipid peroxidation)” value in data set [4] (in soy PC mixtures, 50 μM Fe2+ plus 50 μM Fe3+/250 μM histidine, 37° C., 15 min) is listed as “effective antioxidants”.
For the molecule `CC(C)(Sc1cc(C(C)(C)C)c(O)c(C(C)(C)C)c1)Sc1cc(C(C)(C)C)c(O)c(C(C)(C)C)c1` [Probucol], the “γmin (minimum surface tension)” value in data set [1] (mixture with DPPC, 20 cycles per min) is “slightly increased”. In addition, in data set [4] (0.6% (by weight), added to WMAP10 in soy PC mixtures, data not shown), the “time for which oxidation is totally inhibited” value was “at least 8 min”. For the same molecule, the “effect on the pressure-volume (P-V) curve of the lavaged lung” value in data set [2] is “does not diminish the activity”.
